Results reported in PubChem BioAssay (NCI).
Where “and” joins values, the source holds several entries; their conditions need not be identical. Equal entries are not always repeated.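 Compound exposure: 48 hours, 5 concentrations, 96-well plates. Abbreviation: GI50, concentration required for 50% inhibition of growth. TGI marks complete inhibition of growth.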

Experiments:
Assay in all cases: NCI-60 cell line screen, 48 h
[1] = test system: OVCAR-4 ovarian
[2] = test system: UACC-62 melanoma
[3] = test system: RXF 393 renal
[4] = test system: SF-295 CNS
[5] = test system: SNB-19 CNS
[6] = test system: SF-268 CNS
[7] = test system: HCT-116 colon
[8] = test system: 786-0 renal
[9] = test system: UO-31 renal
[10] = test system: SK-MEL-2 melanoma

| Compound | TGI [1] | TGI [2] | TGI [3] | TGI [4] | TGI [5] | TGI [6] | TGI [7] | TGI [8] | TGI [9] | GI50 [2] | GI50 [3] | GI50 [4] | GI50 [5] | GI50 [6] | GI50 [7] | GI50 [8] | GI50 [9] | TGI [10] | GI50 [1] | GI50 [10] |
| --- | --- | --- | --- | --- | --- | --- | --- | --- | --- | --- | --- | --- | --- | --- | --- | --- | --- | --- | --- | --- |
| COC1(OC)CC2C(=O)N(Cc3ccccc3)C1C=C2S(=O)(=O)c1ccccc1 (stereo not given) | 53.5 µM | 31.3 µM | 29 µM | > 100 µM | 54.7 µM | > 100 µM | 26.7 µM | 38.2 µM | 65.1 µM |  |  |  |  |  |  |  |  |  |  |  |
| COC(=O)[C@@H](C)C[C@H](Cc1ccccc1)NC(=O)c1csc([C@@H](C[C@H](C(C)C)N(C)C(=O)[C@@H](NC(=O)[C@H]2CCCCN2C)C2CCCCC2)OC(C)=O)n1 | > 25 µM | > 25 µM |  | > 25 µM | > 25 µM | > 25 µM | 0.00325 µM | 2.74 µM | 7.76 µM | 0.000354 µM and 0.0025 µM | 0.00103 µM | 0.000346 µM and 0.0025 µM | 0.000718 µM and 0.0025 µM | 0.00375 µM and 0.0025 µM | 0.000325 µM and 0.0025 µM | 1.75 nM and 2.5 nM | 6.84 nM and 41.5 nM |  |  |  |
| C/C(CC(=O)Nc1cccc(Cl)c1C)=N\NC(=O)c1ccncc1 |  | > 100 µM | 87.9 µM | > 100 µM |  | > 100 µM | > 100 µM | > 100 µM | > 100 µM |  |  |  |  |  |  |  |  | > 100 µM |  |  |
| COc1ccc(CCNC(=O)c2ccc(NC3=C(Cl)C(=O)N(Cc4ccccc4)C3=O)cc2)cc1OC | > 100 µM | 74.8 µM | > 100 µM | > 100 µM | > 100 µM | > 100 µM | > 100 µM | > 100 µM |  | 11.8 µM | 7.83 µM | 29.4 µM | 27.5 µM | 26.2 µM | 6.04 µM | 3880 nM |  | 54.1 µM | > 100 µM | 16.8 µM |
| c1ccc2nc3c(nc2c1)sc1ccccc13 | 32.9 µM | 79.3 µM |  | > 100 µM | 42.2 µM | 46.1 µM | > 100 µM | 64.2 µM | > 100 µM |  |  |  |  |  |  |  |  | > 100 µM |  |  |
| O=[N+]([O-])c1ccc(N2N=C(c3ccc(NCc4nc5ccccc5[nH]4)cc3)CC2c2ccco2)cc1 (stereo not given) | 64.8 µM | 69.3 µM | > 100 µM | 74.7 µM | > 100 µM | > 100 µM | 57.3 µM | > 100 µM | 55.4 µM |  |  |  |  |  |  |  |  |  |  |  |
| O=C(Nc1ccc(F)cc1)c1cc(S(=O)(=O)Nc2nc3ccccc3o2)c(SCc2ccccc2)cc1Cl | 60.9 µM | 27.6 µM | 30.2 µM | 29.2 µM | > 100 µM | 43.1 µM | 31.7 µM | 35.3 µM | 29.2 µM | 14.4 µM | 12.8 µM | 15 µM | 47 µM | 17.9 µM | 17.9 µM | 18500 nM | 14100 nM |  | 26.9 µM |  |
| CCCN1CN(C(C(=O)N[C@@H]2C(=O)N3C2SC(C)(C)C3C(=O)O)c2ccc(O)cc2)CSC1=S (stereo not given in full) | > 100 µM | > 100 µM |  | > 100 µM | > 100 µM | > 100 µM | > 100 µM | > 100 µM | > 100 µM |  |  |  |  |  |  |  |  | > 100 µM |  |  |
| CN[C@@H](C)[C@@H](NC)c1ccccc1 |  | > 100 µM | > 100 µM | > 100 µM |  |  | > 100 µM | > 100 µM | > 100 µM |  |  |  |  |  |  |  |  |  |  |  |
| Cc1cccc(C)c1NC(=O)C(=O)C(C(=O)c1ccccc1-c1ccccc1)C1OC(=O)c2ccccc21 (stereo not given) |  | 36.7 µM | 28.4 µM | > 100 µM |  | 78.4 µM | 27.8 µM | 37 µM | 57.6 µM |  |  |  |  |  |  |  |  | 35.6 µM |  |  |
